Experimental data published in ChEMBL document CHEMBL1126428, “Inhibitors of myo-inositol monophosphatase unrelated to the enzyme substrate” (Bioorg Med Chem Lett, 1992).

target: T1, Inositol monophosphatase 1 (Bos taurus, UniProt P20456); test: Concentration required for 50% inhibition of Inositol monophosphatase
T1 sequence (P20456 whole entry): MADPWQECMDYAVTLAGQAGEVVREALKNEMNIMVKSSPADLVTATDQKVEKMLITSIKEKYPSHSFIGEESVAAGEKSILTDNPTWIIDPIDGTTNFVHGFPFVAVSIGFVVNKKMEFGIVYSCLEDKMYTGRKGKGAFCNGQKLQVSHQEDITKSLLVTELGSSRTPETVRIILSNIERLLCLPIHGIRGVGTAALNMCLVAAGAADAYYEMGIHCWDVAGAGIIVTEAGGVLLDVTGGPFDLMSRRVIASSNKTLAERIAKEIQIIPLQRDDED

Row | IC50 | Compound
1 | 23 µM | O=P(O)(O)C(O)(Cc1ccc(Cl)cc1Cl)P(=O)(O)O
2 | 40 µM | COc1ccc(C(O)(P(=O)(O)O)P(=O)(O)O)cc1
3 | 29 µM | O=P(O)(O)C(O)(c1ccccc1)P(=O)(O)O
4 | 0.61 µM | O=P(O)(O)C(O)(c1ccc(Oc2cccc3c2CCCC3)cc1)P(=O)(O)O
5 | 36 µM | O=P(O)(O)C(O)(c1ccc(Cl)cc1)P(=O)(O)O
6 | 140 µM | CN(C)c1ccc(C(O)(P(=O)(O)O)P(=O)(O)O)cc1
7 | 38 µM | O=P(O)(O)C(O)(Cc1ccccc1)P(=O)(O)O

Row | Compound | IC50
8 | CC(O)(P(=O)(O)O)P(=O)(O)O [ETIDRONIC ACID] | 110 µM
